Test results taken from US10561655B2 (SYNBLia Therapeutics, Inc., priority 2018, dated 2020).
Like-named read-outs stand apart in the source and are kept apart here.

Experiments:
Full length SHP2 enzyme = Full length SHP2 enzyme (Homo sapiens (Human), UniProt Q06124); experiment: SHP2 Phosphatase Assays; format: biochemical; details: full length SHP2 0.1 nM, 1 uM IRS-1 peptide, DiFMUP substrate, room temperature
Protocol: IC50 values were determined at room temperature in 384-well black polystyrene plate, using a final reaction volume of 15 μl and the following assay buffer conditions: 60 mM Hepes (pH=7.2), 75 mM NaCl, 75 mM KCl, and 1 mM EDTA, 0.05% P-20, 5 mM dithiothreitol (DTT). Full length SHP2 enzyme (diluted to 0.1 nM in reaction buffer) were co-incubated with 1 uM IRS-1 peptide and 0.01 nM to 10 μM compounds of the disclosure for 60 min. The surrogate substrate DiFMUP (5 μL, […]) was added, and incubated at rt for 60 min. The reaction was then quenched by the addition of 5 μL of a 40 μM solution of bpV(Phen). The fluorescence signal was monitored using a microplate reader (Envision, Perkin-Elmer) using excitation and emission wavelengths of 360 nm and 450 nm, respectively. The inhibitor dose-response curves were analyzed using normalized IC50 regression curve fitting with control-based normalization.

p-ERK/total ERK = p-ERK/total ERK Cellular Assay; format: cell-based
Protocol: p-ERK/total ERK Cellular Assay
Cells were seeded in 384-well cell culture plate and incubated overnight. Test compounds were added to the cell plate and the plate was incubated for 2-6 hours. To detect p-ERK, the cell plate was used AlphaLISA SureFire Ultra p-ERK kit; to detect total ERK, the cell plate was used total ERK HTRF kit. The plate was read on the Envision.

cells = experiment: Cell Proliferation Assay (CellTiter Glo); format: cell-based
Protocol: Firstly, the cells were seeded in 384-well cell culture plate and incubate overnight. The test compounds were added to the cell plate and incubated for 3-5 days. The cell plate was then detected using CellTiter Glo reagents.

[1] = p-ERK (AlphaLISA SureFire Ultra) / total ERK (HTRF), 2-6 hours incubation, read-out: IC50
[2] = 3-5 days incubation, CellTiter Glo, read-out: IC50

SMILES | IC50 (Full length SHP2 enzyme) | IC50 (p-ERK/total ERK; [1]) | IC50 (cells; [2]) | IC50 (cells) | IC50 (p-ERK/total ERK)
CC1(CN)CCN(c2ncc(Sc3cccc(NC(=O)c4c(O)nc5cnccn5c4=O)c3Cl)[nH]c2=O)CC1 [Compound 30, N-(3-((5-(4-(aminomethyl)-4-methylpiperidin-1-yl)-6-oxo-1,6-dihydropyrazin-2-yl)thio)-2-chlorophenyl)-2-hydroxy-4-oxo-4H-pyrazino[1,2-a]pyrimidine-3-carboxamide] | – | < 100 nM | – | – | –
CC1(CN)CCN(c2ncc(Sc3cccc(Cl)c3Cl)[nH]c2=O)CC1 [Compound 2, 3-(4-(aminomethyl)-4-methylpiperidin-1-yl)-6-((2,3-dichlorophenyl)thio)pyrazin-2(1H)-one] | ≤ 50 nM | – | – | < 5000 nM | < 500 nM
CC1(CN)CCN(c2ncc(Sc3cccc(NC(=O)c4c(O)nc5sccn5c4=O)c3Cl)[nH]c2=O)CC1 [Compound 31, N-(3-((5-(4-(aminomethyl)-4-methylpiperidin-1-yl)-6-oxo-1,6-dihydropyrazin-2-yl)thio)-2-chlorophenyl)-7-hydroxy-5-oxo-5H-thiazolo[3,2-a]pyrimidine-6-carboxamide] | ≤ 50 nM | < 100 nM | < 5000 nM | – | –
NC1C2CN(c3ncc(Sc4cccc(Cl)c4Cl)[nH]c3=O)CC12 (centres unmarked) [Compound 86, 3-(6-amino-3-azabicyclo[3.1.0]hexan-3-yl)-6-((2,3-dichlorophenyl)thio)pyrazin-2(1H)-one] | ≤ 50 nM | – | – | – | –
N[C@@H]1COCC12CCN(c1ncc(Sc3cccc(Cl)c3Cl)[nH]c1=O)CC2 [Compound 73, (S)-3-(4-amino-2-oxa-8-azaspiro[4.5]decan-8-yl)-6-((2,3-dichlorophenyl)thio)pyrazin-2(1H)-one] | ≤ 50 nM | < 100 nM | < 5000 nM | – | –
Cn1c(N2CCC(C)(CN)C2)nc(N)c(Sc2cccc(Cl)c2Cl)c1=O (centres unmarked) [Compound 52, 6-amino-2-(3-(aminomethyl)-3-methylpyrrolidin-1-yl)-5-((2,3-dichlorophenyl)thio)-3-methylpyrimidin-4(3H)-one] | ≤ 50 nM | – | – | – | –
C[C@@H]1OCC2(CCN(c3ncc(Sc4ccnc(Cl)c4Cl)[nH]c3=O)CC2)[C@@H]1N [Compound 81, 3-((3S,4S)-4-amino-3-methyl-2-oxa-8-azaspiro[4.5]decan-8-yl)-6-((2,3-dichloropyridin-4-yl)thio)pyrazin-2(1H)-one] | ≤ 50 nM | < 100 nM | < 1000 nM | – | –
CC1(CN)CCN(c2nc3[nH]nc(Nc4cccc(Cl)c4Cl)c3c(=O)[nH]2)CC1 [Compound 34, 6-(4-(aminomethyl)-4-methylpiperidin-1-yl)-3-((2,3-dichlorophenyl)amino)-1,5-dihydro-4H-pyrazolo[3,4-d]pyrimidin-4-one] | ≤ 50 nM | < 500 nM | – | – | –
C[C@@H]1OCC2(CCN(c3ncc(Sc4ccnc(F)c4F)[nH]c3=O)CC2)[C@@H]1N [Compound 84] | ≤ 50 nM | < 100 nM | < 1000 nM | – | –
C[C@@H]1OCC2(CCN(c3ncc(Sc4cccc(Cl)c4Cl)[nH]c3=O)CC2)[C@@H]1N [Compound 14] | ≤ 50 nM | < 100 nM | < 1000 nM | – | –
C[C@@H]1OCC2(CCN(c3ncc(Sc4ccnc(N)c4Cl)[nH]c3=O)CC2)[C@@H]1N [Compound 77, 6-((2-amino-3-chloropyridin-4-yl)thio)-3-((3S,4S)-4-amino-3-methyl-2-oxa-8-azaspiro[4.5]decan-8-yl)pyrazin-2(1H)-one] | ≤ 50 nM | – | – | – | –
CC1(CN)CCN(c2ncc(Sc3cccc(NC(=O)c4c(O)nc5ccccn5c4=O)c3Cl)[nH]c2=O)CC1 [Compound 29, N-(3-((5-(4-(aminomethyl)-4-methylpiperidin-1-yl)-6-oxo-1,6-dihydropyrazin-2-yl)thio)-2-chlorophenyl)-2-hydroxy-4-oxo-4H-pyrido[1,2-a]pyrimidine-3-carboxamide] | ≤ 50 nM | < 100 nM | < 5000 nM | – | –
NC1CCCC(n2ccc(-c3cccc(Cl)c3Cl)cc2=O)C1 (centres unmarked) [Compound 74, 1-(3-aminocyclohexyl)-4-(2,3-dichlorophenyl)pyridin-2(1H)-one] | ≤ 50 nM | – | – | – | –
NC1COCC12CCN(c1ncc(Sc3cccc(Cl)c3Cl)[nH]c1=O)CC2 (centres unmarked) [Compound 10, 3-(4-amino-2-oxa-8-azaspiro[4.5]decan-8-yl)-6-((2,3-dichlorophenyl)thio)pyrazin-2(1H)-one] | – | – | – | < 5000 nM | < 100 nM
CC1(CN)CCN(c2nc3[nH]nc(Oc4cccc(Cl)c4Cl)c3c(=O)[nH]2)CC1 [Compound 35, 6-(4-(aminomethyl)-4-methylpiperidin-1-yl)-3-(2,3-dichlorophenoxy)-1,5-dihydro-4H-pyrazolo[3,4-d]pyrimidin-4-one] | ≤ 50 nM | < 500 nM | – | – | –
C[C@@H]1OCC2(CCN(c3ncc(Sc4ccnc(F)c4Cl)[nH]c3=O)CC2)[C@@H]1N [Compound 83, 3-((3S,4S)-4-amino-3-methyl-2-oxa-8-azaspiro[4.5]decan-8-yl)-6-((3-chloro-2-fluoropyridin-4-yl)thio)pyrazin-2(1H)-one] | ≤ 50 nM | < 100 nM | < 1000 nM | – | –

The next lines start with results.

IC50 (Full length SHP2 enzyme) | IC50 (p-ERK/total ERK; [1]) | SMILES | IC50 (cells; [2]) | IC50 (cells) | IC50 (p-ERK/total ERK)
≤ 50 nM | < 100 nM | CC1(CN)CCN(c2ncc(Sc3cccc(NC(=O)c4c(O)nc5n(c4=O)CCCC5)c3Cl)[nH]c2=O)CC1 [Compound 33, N-(3-((5-(4-(aminomethyl)-4-methylpiperidin-1-yl)-6-oxo-1,6-dihydropyrazin-2-yl)thio)-2-chlorophenyl)-2-hydroxy-4-oxo-6,7,8,9-tetrahydro-4H-pyrido[1,2-a]pyrimidine-3-carboxamide] | – | – | –
≤ 50 nM | < 100 nM | COc1cccc(Sc2cnc(N3CCC4(CC3)CO[C@@H](C)[C@H]4N)c(=O)[nH]2)c1Cl [Compound 79, 3-((3S,4S)-4-amino-3-methyl-2-oxa-8-azaspiro[4.5]decan-8-yl)-6-((2-chloro-3-methoxyphenyl)thio)pyrazin-2(1H)-one] | – | – | –
≤ 50 nM | < 100 nM | COc1nccc(Sc2cnc(N3CCC4(CC3)CO[C@@H](C)[C@H]4N)c(=O)[nH]2)c1Cl [Compound 80, 3-((3S,4S)-4-amino-3-methyl-2-oxa-8-azaspiro[4.5]decan-8-yl)-6-((3-chloro-2-methoxypyridin-4-yl)thio)pyrazin-2(1H)-one] | – | – | –
≤ 50 nM | – | N[C@@H]1c2ccccc2CC12CCN(c1ncc(Sc3cccc(Cl)c3Cl)[nH]c1=O)CC2 [Compound 108, (S)-3-(1-amino-1,3-dihydrospiro[indene-2,4′-piperidin]-1′-yl)-6-((2,3-dichlorophenyl)thio)pyrazin-2(1H)-one] | – | – | –
≤ 50 nM | < 100 nM | C[C@@H]1OCC2(CCN(c3ncc(Sc4cccc(F)c4F)[nH]c3=O)CC2)[C@@H]1N [Compound 82, 3-((3S,4S)-4-amino-3-methyl-2-oxa-8-azaspiro[4.5]decan-8-yl)-6-((2,3-difluorophenyl)thio)pyrazin-2(1H)-one] | < 5000 nM | – | –
≤ 50 nM | < 100 nM | C[C@@H]1OCC2(CCN(c3ncc(Sc4cccc(F)c4Cl)[nH]c3=O)CC2)[C@@H]1N [Compound 109, 3-((3S,4S)-4-amino-3-methyl-2-oxa-8-azaspiro[4.5]decan-8-yl)-6-((2-chloro-3-fluorophenyl)thio)pyrazin-2(1H)-one] | < 5000 nM | – | –
≤ 50 nM | – | C[C@@H]1OCC2(CCN(c3ncc(Sc4cc[nH]c(=O)c4Cl)[nH]c3=O)CC2)[C@@H]1N [Compound 107, 3-((3S,4S)-4-amino-3-methyl-2-oxa-8-azaspiro[4.5]decan-8-yl)-6-((3-chloro-2-oxo-1,2-dihydropyridin-4-yl)thio)pyrazin-2(1H)-one] | – | – | –
≤ 50 nM | – | N[C@@H]1COCC12CCN(c1ncc(Sc3ccnc(Cl)c3Cl)[nH]c1=O)CC2 [Compound 88, (S)-3-(4-amino-2-oxa-8-azaspiro[4.5]decan-8-yl)-6-((2,3-dichloropyridin-4-yl)thio)pyrazin-2(1H)-one] | – | – | –
≤ 50 nM | – | CC1(CN)CCN(c2ncc(Sc3cccc(NC(=O)c4c(O)nc5[nH]ccn5c4=O)c3Cl)[nH]c2=O)CC1 [Compound 32, N-(3-((5-(4-(aminomethyl)-4-methylpiperidin-1-yl)-6-oxo-1,6-dihydropyrazin-2-yl)thio)-2-chlorophenyl)-7-hydroxy-5-oxo-1,5-dihydroimidazo[1,2-a]pyrimidine-6-carboxamide] | – | – | –
≤ 50 nM | – | NC1C2CC2CC12CCN(c1ncc(Sc3cccc(Cl)c3Cl)[nH]c1=O)CC2 (centres unmarked) [Compound 13, 3-(2-aminospiro[bicyclo[3.1.0]hexane-3,4′-piperidin]-1′-yl)-6-((2,3-dichlorophenyl)thio)pyrazin-2(1H)-one] | – | – | –
≤ 50 nM | – | N[C@@H]1c2ccccc2OC12CCN(c1ncc(Sc3cccc(Cl)c3Cl)[nH]c1=O)CC2 [Compound 87, (R)-3-(3-amino-3H-spiro[benzofuran-2,4′-piperidin]-1′-yl)-6-((2,3-dichlorophenyl)thio)pyrazin-2(1H)-one] | – | – | –
